Test results: US20250295693A1, “HYBRID TUMOR/CANCER THERAPY BASED ON TARGETING THE RESOLUTION OF OR INDUCING TRANSCRIPTION-REPLICATION CONFLICTS (TRCS)” (Julius-Maximilians-Universität Würzburg, priority 2021, published 2025)
Entries after “also recorded” stand apart in the source; their conditions may differ.

Legend:
[1] = tested on: CDK12 kinase; conditions: cited from earlier work
[2] = tested on: pancreas carcinoma cells; experiment: Microscopy-based siRNA screen for DNA damage in pancreas carcinoma cells; assay type: cell-based; conditions: siRNA hits, low concentration of ATR inhibitor
Description: FIG. 1. […] Similar assays (not shown) establish that CDK12 acts downstream of PAF1 in this pathway. e: DNA damage and colony assays in response to combined inhibition of CDK12 and ATR.
Targeting the mechanisms that resolve TRCs is considered a viable strategy to inflict tumor cell-specific DNA damage and/or to sensitize tumors to immune cell-mediated killing. Several of the mechanisms described herein appear to be specific for MYCN-driven tumors. For example, (c-)MYC (herein also just “MYC”) binds only very weakly to Aurora-A (Dauch, Nat Med 22, 2016, 744-53). Therefore, pathways have been identified that resolve TRCs in models of MYC driven tumors, which encompasses the vast majority of all tumors. Specifically, there was a focus on conflicts in a cell line established from the KPC model of pancreas carcinoma (Hingorani, loc.cit.). This reflects human PDAC. In this model, an siRNA screen of 86 candidate genes was performed using several parallel microscope-based assays to measure the occurrence of TRCs (FIG. 1).

[3] = tested on: MYC protein; experiment: Immunoblot of MYC protein in human tumor cells; assay type: cell-based; conditions: 24 h treatment
Procedure: FIG. 14. […] A: Immunoblot of tumor cells after 24 h treatment with Cymarin. B: Quantification of MYC protein levels in human pancreatic tumor cells and colorectal tumor cells.
(§1) After treatment for 24 h, cells were harvested in RIPA buffer containing protease and phosphatase inhibitor cocktails. The protein concentration was determined using BCA or Bradford assay. 15 μg of protein was loaded on a 10% SDS gel. After electrophoresis, proteins were transferred to 0.45 μm PVDF membrane and incubated with primary antibodies at 4° C. overnight. The signal was detected using peroxidase-conjugated species-specific secondary antibodies and visualized at LAS-4000 Luminescent Image Analyzer (Fujifilm).
An immunoblot of tumor cells after 24 h treatment with cymarin was made (FIG. 14A). Quantification of MYC protein levels in human pancreatic tumor cells and colorectal tumor cells was performed (FIG. 14B).

[4] = tested on: MYC; experiment: MYC expression in cells with ectopic expression of murine ATP1A1; assay type: cell-based
Procedure: FIG. 15. The effect of CG on MYC protein levels is mediated by inhibition of the NA/K pump. A: Depletion of the ATP1A1 subunit of the NA/K pump leads to the reduction of MYC protein levels. B: Ectopic expression of murine ATP1A1 renders the expression of MYC insensitive from the addition of cymarin, a prototypical KG.
as §1
Further, it was shown that the depletion of the ATP1A1 subunit of the NA/K pump leads to the reduction of MYC protein levels (FIG. 15A).

[5] = tested on: human LS174 colo-rectal tumor cells; experiment: Extracellular acidification rate (lactate secretion), Seahorse XF96; assay type: cell-based
[6] = tested on: phosphoKap1; experiment: EdU incorporation/Hoechst plots with phosphoKap1 staining (DNA damage in S-phase); assay type: cell-based; conditions: b279: in conjunction with ATR inhibition
Description: (§2) Deregulation of the WNT pathway in CRC not only deregulates transcription by RNAPII, but also by RNA polymerase I, which transcribes ribosomal RNAs in the nucleolus; this leads to enhanced synthesis of ribosomal RNA (Morral, Cell stem cell 26, 2020, 845-61). This is mediated by a beta-catenin dependent upregulation of multiple components of the ribosomal RNA synthesis machinery (FIG. 4a). Further to these observations, the effect of CX-5461, an inhibitor of RNA polymerase I transcription on the growth of CRC metastases, was analyzed. […] This observation was confirmed. […] Since there is an ongoing debate on the primary mechanism of CX-5461 action (Bruno, PNAS 117, 2020, 4053-60; Sanij, Nat Commun 11, 2020, 2641; Xu, Nat Commun 8, 2017, 14432), genetic work to validate its precise mechanism of action, and to further confirm that combining POL1 and ATR inhibition is a valid strategy to induce TRCs, is performed.

[7] = tested on: RPA194 and RAD9; experiment: Proximity ligation assays for RPA194 and RAD9; assay type: cell-based
Description: as §2

[8] = tested on: human CRC cell lines; experiment: Colony assays of CRC cells in culture; assay type: cell-based; conditions: low concentrations of CX-5461 combined with ATR inhibitor (AZD6738); p53-independent
Description: as §2

[9] = tested on: murine CRC organoids; experiment: Growth of CRC organoids, CX-5461 plus ATR inhibitor; assay type: cell-based; conditions: low concentrations of CX-5461 combined with ATR inhibitor (AZD6738)
Description: as §2

[10] = biological target: Aurora-A alleles, T217D and T217E (Homo sapiens, UniProt O14965, T217D); conditions: cited from earlier work
Sequence of Aurora-A alleles, T217D and T217E (O14965 whole entry T217D): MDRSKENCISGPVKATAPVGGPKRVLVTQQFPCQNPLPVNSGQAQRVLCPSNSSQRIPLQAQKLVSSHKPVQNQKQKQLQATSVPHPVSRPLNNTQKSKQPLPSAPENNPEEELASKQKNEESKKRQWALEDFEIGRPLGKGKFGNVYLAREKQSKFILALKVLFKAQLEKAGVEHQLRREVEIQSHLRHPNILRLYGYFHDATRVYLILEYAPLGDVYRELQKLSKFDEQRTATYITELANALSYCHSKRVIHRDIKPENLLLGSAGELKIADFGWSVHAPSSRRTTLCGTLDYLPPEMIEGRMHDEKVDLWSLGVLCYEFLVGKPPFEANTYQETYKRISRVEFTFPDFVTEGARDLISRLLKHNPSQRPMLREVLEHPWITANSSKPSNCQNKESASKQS

## Cn1cc(-n2cnc3c(NCc4nc5cc(Cl)c(Cl)cc5[nH]4)nc(N4CCOCC4)nc32)cn1 [SR4835]
[1]
  inhibition of the CDK12 kinase: specific and potent inhibitor

## C[C@@H]1COCCN1c1cc(C2([S@](C)(=N)=O)CC2)nc(-c2cc[nH]c3nccc2-3)n1 [AZD6738]
[2]
  DNA damage: strongly increased DNA damage

## CO[C@H]1C[C@H](O[C@H]2CC[C@]3(C=O)[C@H]4CC[C@]5(C)[C@@H](C6=CC(=O)OC6)CC[C@]5(O)[C@@H]4CC[C@]3(O)C2)O[C@H](C)[C@H]1O [cymarin, Cymarin]
[3]
  amount of MYC protein: reduce the amount of MYC protein
[4]
  expression of MYC on addition of cymarin: insensitive
[5]; LS174 cells
  extracellular acidification rate (lactate secretion): significantly reduced
[5]; overexpression of the murine 1 isoform of Na+/K+-ATPase
  effect on extracellular acidification rate: can be reduced

## Cc1cnc(CNC(=O)c2c(=O)c3ccc(N4CCCN(C)CC4)nc3n3c2sc2ccccc23)cn1 [CX-5461]
[6]
  DNA damage during DNA replication (S-phase): induction of DNA damage; also recorded: massive DNA damage
[7]
  conflicts with DNA replication: proximity between RPA194 and RAD9: increased proximity
[8]
  colony formation: suppression of growth; also recorded: almost completely suppressed
[9]
  colony formation / growth of organoids: suppression of growth; also recorded: almost completely suppressed

## COc1cc(Nc2ncc3c(n2)-c2ccc(Cl)cc2C(c2c(F)cccc2OC)=NC3)ccc1C(=O)O [Alisertib]
[10]
  resistance of cells: resistant
